Measured values as given in patent publication US5767253A, “A83543 Compounds; factors Q, R, S, and T” (priority 1995, dated 1998).
Values after ≈ are worked out from the molar mass of the structure shown.

Assays:
Aster Leafhopper = test: Mite/insect screen, Aster Leafhopper (ALH); type: in vivo; details: Macrosteles fascifrons, 24 hr, mean of single replicate tests
Procedure: (§1) The Formula 2 compounds were tested for miticidal and insecticidal activity in the following mite/insect screen. Each test compound was formulated by dissolving the compound in an acetone-alcohol (1:1) mixture containing 23 g of TOXIMUL R (sulfonate/nonionic emulsifier blend) and 13 g of TOXIMUL S (sulfonate/nonionic emulsifier blend) per liter. These mixtures were then diluted with water to give the indicated concentrations.
(§2) Two-spotted spider mites and cotton aphids were introduced on squash cotyledons and allowed to establish on both leaf surfaces. The leaves were then sprayed with 5 ml of test solutions using a DeVilbiss atomizing sprayer at 10 psi. Both surfaces of the leaves were covered until run off and then allowed to dry for one hour. After standard exposure periods percent mortality was evaluated. Additional insects were evaluated using similar formulations and evaluation procedures. The results are reported in Table V. The following abbreviations are used: […]

Beet Armyworm = test: Mite/insect screen, Beet Armyworm (BAW); type: in vivo, Spodoptera exiqua; details: Spodoptera exigua, 144 h, 6 day, mean of single replicate tests
Procedure: as §1, §2

Cotton Aphid = test: Mite/insect screen, Cotton Aphid (CA); type: in vivo, Aphis gossypii Glover; details: Aphis gossypii, 4-5 day, mean of single replicate tests
Procedure: as §1, §2

German Cockroach = test: Mite/insect screen, German Cockroach (GECR); type: in vivo; details: Blattella germanica, mean of single replicate tests
Procedure: as §1, §2

Rootknqt Nemat.ode = test: Mite/insect screen, Rootknot Nematode (NEM); type: in vivo, Meliiodyne spp.; details: 264 h, 11 day, mean of single replicate tests
Procedure: as §1, §2

Southern Corn Rootworm = test: Mite/insect screen, Southern Corn Rootworm (SCRW); type: in vivo, Diabrotica undecimpunctata howardi; details: 264 h, 11 day, mean of single replicate tests
Procedure: as §1, §2

Tobacco Budworm = test: Mite/insect screen, Tobacco Budworm (TBW); type: in vivo; details: Heliothis virescens, 144 h, 6 day, mean of single replicate tests
Procedure: as §1, §2

Two-spotted Spider Mite = test: Mite/insect screen, Two-spotted Spider Mite (TSSM); type: in vivo; details: Tetranychus urticae, 4-5 day, mean of single replicate tests
Procedure: as §1, §2

neonate tobacco budworm = test: LD50 against neonate tobacco budworm; type: in vivo; details: Heliothis virescens; neonate larvae; mean of two tests; mortality evaluated at 24 and 48 hours
Procedure: The Formula 2 compounds were evaluated in the following assay to determine the LD50 against neonate tobacco budworm (Heliothis virescens). A petri dish (100 mm ×20 mm) is inverted and the lid lined with a #1 qualitative filter paper. Ten neonate larvae are placed in each dish and a 1 ml test solution is pipetted onto the insects. The petri dish bottom is then placed on the lid to contain the larvae. At 1 hr. after treatment, a small piece of Heliothis diet (modified slurry, Southland Products, Lake Village, Ariz.) is added to each dish. The mortality is evaluated at 24 and 48 hours. The tests were run in triplicate.

Blowfly Larvae = test: Activity against blowfly larvae (in vitro); type: in vivo
From the text: (§3) Tables VII and VIII summarize in vitro studies using compounds of the present invention against members of the insect order Diptera.

Adult Stablefly = test: Activity against adult stablefly (in vitro); type: in vivo; details: Stomoxys calcitrans
From the text: as §3

Row | Compound | inhibition at 50 ppm (Aster Leafhopper) [%] | inhibition at 400 ppm (Aster Leafhopper) [%] | inhibition at 50 ppm (Beet Armyworm) [%] | inhibition at 400 ppm (Beet Armyworm) [%] | inhibition at 50 ppm (Cotton Aphid) [%] | inhibition at 400 ppm (Cotton Aphid) [%] | inhibition at 50 ppm (German Cockroach; 168 h, 7 day) [%] | inhibition at 400 ppm (German Cockroach; 168 h, 7 day) [%] | inhibition at 50 ppm (German Cockroach; 504 h, 21 day) [%] | inhibition at 400 ppm (German Cockroach; 504 h, 21 day) [%] | inhibition at 400 ppm (Rootknqt Nemat.ode) [%] | inhibition at 400 ppm (Southern Corn Rootworm) [%] | inhibition at 21 ppm (Tobacco Budworm) [%] | inhibition at 64 ppm (Tobacco Budworm) [%] | inhibition at 50 ppm (Two-spotted Spider Mite) [%] | inhibition at 400 ppm (Two-spotted Spider Mite) [%] | LC50 (neonate tobacco budworm) [µg/mL] | % mortality (Blowfly Larvae; 5 ppm, 24 hrs.) [%] | % mortality (Blowfly Larvae; 5 ppm, 48 hrs.) [%] | % mortality (Blowfly Larvae; 10 ppm, 24 hrs.) [%] | further results
1 | CC[C@H]1CCC[C@H](O[C@H]2CC[C@H](N(C)C)[C@@H](C)O2)[C@@H](C)C(=O)C2=C[C@@H]3[C@@H](C=C(C)[C@@H]4C[C@@H](O[C@@H]5O[C@@H](C)[C@H](OC)[C@@H](OC)[C@H]5O)C[C@@H]34)[C@@H]2CC(=O)O1 [A83543Q] | 100 | 100 | 100 | 100 | 0 | 0 | 0 | 0 | 0 | 0 | 0 | 0 | 100 | 100 | 70 | 100 | 0.39 (≈ 0.533 µM) | 90 | 90 | 100 | % mortality (Blowfly Larvae; 10 ppm, 48 hrs.): 100%; mortality at 5 ppm (Adult Stablefly; 24 h): 50%; mortality at 10 ppm (Adult Stablefly; 24 h): 90%; mortality at 5 ppm (Adult Stablefly; 48 h): 90%; mortality at 10 ppm (Adult Stablefly; 48 h): 100%
2 | CC[C@H]1CCC[C@H](O[C@H]2CC[C@H](NC)[C@@H](C)O2)[C@@H](C)C(=O)C2=C[C@@H]3[C@@H](C=C[C@@H]4C[C@@H](O[C@@H]5O[C@@H](C)[C@H](OC)[C@@H](OC)[C@H]5O)C[C@@H]34)[C@@H]2CC(=O)O1 [A83543R] | 0 | 0 | 0 | 0 | 0 | 0 | 0 | 0 | 20 | 0 | 0 | 0 | 63 | 88 | 85 | 90 | 14.5 (≈ 20.6 µM) | 90 | 100 | 100 | % mortality (Blowfly Larvae; 10 ppm, 48 hrs.): 100%; mortality at 5 ppm (Adult Stablefly; 24 h): 70%; mortality at 10 ppm (Adult Stablefly; 24 h): 90%; mortality at 5 ppm (Adult Stablefly; 48 h): 100%; mortality at 10 ppm (Adult Stablefly; 48 h): 100%
3 | CO[C@@H]1[C@@H](OC)[C@@H](O)[C@H](O[C@H]2C[C@H]3[C@@H]4C=C5C(=O)[C@H](C)[C@@H](O[C@H]6CC[C@H](N(C)C)[C@@H](C)O6)CCC[C@H](C)OC(=O)C[C@H]5[C@@H]4C=C[C@@H]3C2)O[C@H]1C [A83543S] | 60 | 100 | 100 | 100 | 0 | 0 | 0 | 0 | 0 | 20 | 0 | 0 | 26 | 53 | 0 | 0 | 53 (≈ 75.3 µM) | 0 | 0 | 60 | % mortality (Blowfly Larvae; 10 ppm, 48 hrs.): 60%; mortality at 50 ppm (Adult Stablefly; 24 h): 100%; mortality at 100 ppm (Adult Stablefly; 24 h): 90%; mortality at 50 ppm (Adult Stablefly; 48 h): 100%; mortality at 100 ppm (Adult Stablefly; 48 h): 100%
4 | CC[C@H]1CCC[C@H](O[C@H]2CC[C@H](N(C)C)[C@@H](C)O2)[C@@H](C)C(=O)C2=C[C@@H]3[C@@H](C=C[C@@H]4C[C@@H](O[C@@H]5O[C@@H](C)[C@H](OC)[C@@H](O)[C@H]5O)C[C@@H]34)[C@@H]2CC(=O)O1 [A83543T] | 20 | 100 | 0 | 0 | 0 | 0 | 0 | 0 | 0 | 0 | 0 | 0 | 0 | 0 | 0 | 0 | > 64 |  |  |  | % mortality (Blowfly Larvae; 50 ppm, 24 hrs.): 0%; % mortality (Blowfly Larvae; 50 ppm, 48 hrs.): 0%; % mortality (Blowfly Larvae; 100 ppm, 24 hrs.): 0%; % mortality (Blowfly Larvae; 100 ppm, 48 hrs.): 0%; mortality at 50 ppm (Adult Stablefly; 24 h): 60%; mortality at 100 ppm (Adult Stablefly; 24 h): 80%; mortality at 50 ppm (Adult Stablefly; 48 h): 70%; mortality at 100 ppm (Adult Stablefly; 48 h): 90%
